The source of these data is US9458176B2, “Tetrahydroimidazo(1,5-D)[1,4]oxazepine derivative” (Eisai R&D Management Co., Ltd., priority 2013, dated 2016).

Molecules are shown by their SMILES.

human mGluR2, sequence (Q14416 19-872): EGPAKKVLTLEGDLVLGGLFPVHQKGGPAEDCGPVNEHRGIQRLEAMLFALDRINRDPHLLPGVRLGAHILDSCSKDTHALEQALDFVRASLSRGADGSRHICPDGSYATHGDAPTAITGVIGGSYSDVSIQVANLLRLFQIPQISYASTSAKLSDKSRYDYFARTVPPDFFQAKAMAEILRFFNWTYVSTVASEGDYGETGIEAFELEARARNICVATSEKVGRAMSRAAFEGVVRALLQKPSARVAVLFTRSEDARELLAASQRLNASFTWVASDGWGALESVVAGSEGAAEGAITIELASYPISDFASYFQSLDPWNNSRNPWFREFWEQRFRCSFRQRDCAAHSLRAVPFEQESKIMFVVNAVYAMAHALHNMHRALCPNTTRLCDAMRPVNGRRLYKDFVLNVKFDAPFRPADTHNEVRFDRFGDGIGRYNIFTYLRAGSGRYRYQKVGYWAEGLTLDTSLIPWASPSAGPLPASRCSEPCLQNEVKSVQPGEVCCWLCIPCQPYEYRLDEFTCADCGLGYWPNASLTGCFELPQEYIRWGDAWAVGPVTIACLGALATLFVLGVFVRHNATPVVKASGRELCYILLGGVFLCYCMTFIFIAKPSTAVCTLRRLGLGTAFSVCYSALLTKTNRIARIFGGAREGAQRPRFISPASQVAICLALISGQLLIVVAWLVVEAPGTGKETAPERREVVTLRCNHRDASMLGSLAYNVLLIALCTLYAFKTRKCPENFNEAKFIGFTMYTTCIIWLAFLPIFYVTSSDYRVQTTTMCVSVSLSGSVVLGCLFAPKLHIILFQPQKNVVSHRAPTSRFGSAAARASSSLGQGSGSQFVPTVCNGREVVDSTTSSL

The target in the first assay is human mGluR2 (Homo sapiens (Human), UniProt Q14416). In words: [35S]GTPγS binding assay (Affinity to mGluR2). Type of assay: biochemical. The conditions noted are these: cell membrane fraction of HEK293 cells stably expressing human mGluR2; glutamic acid 10 μM. How it is done:
(Preparation of Cell Membrane Fraction of HEK293 Cells Stably Expressing Human Metabotropic Glutamate Receptor 2 (mGluR2))
HEK293 cells stably expressing human mGluR2 and human glutamate transporter SLC1A3 were cultured in a Dulbecco's modified Eagle's medium with 10% fetal bovine serum (50 units/mL of penicillin, 50 μg/mL of streptomycin, 60 μg/mL of geneticin, 400 μg/mL of hygromycin B and 2 mM of glutamine) at 37° C. under 5% CO2. Confluent cell cultures were washed twice with PBS(−), and then scraped off with a cell scraper, and subjected to centrifugal separation at 4° C. and 1500 rpm for 5 minutes for collecting cells. The centrifuged sediment (cell pellet) was homogenized in a 20 mM HEPES buffer containing 10 mM EDTA (pH 7.4) by using sonicator and centrifuged at 4° C. and 1500×g for 30 minutes. The supernatant (soluble fraction) was subjected to the centrifugal separation at 4° C. and 40,000×g for 30 minutes, and thus, insoluble fraction was obtained. After additional centrifugally washing the obtained fraction with 20 mM HEPES buffer containing 10 mM EDTA (pH 7.4), the pellet was centrifugally suspended with a 20 mM HEPES buffer containing 0.1 mM EDTA, and the cell membrane fraction was obtained by the centrifugal separation at 4° C. and 40,000×g for 30 minutes. The thus obtained cell membrane fraction was suspended in a 20 mM HEPES buffer containing 0.1 mM EDTA in a protein concentration of 3 mg/mL, which was stored at −80° C.
([^35S]GTPγS Binding Assay)
The frozen cell membrane fraction prepared as described above was thawed before use, and the resultant was diluted with a buffer for a binding assay (final concentrations: 20 mM HEPES, 100 mM NaCl, 1 mM MgCl2, 3 μM GDP, 300 μg/mL saponin, 0.1% BSA). The compound of each example was added to a cell membrane fraction containing 1.8 to 3 μg/assay of membrane protein on a plate, followed by incubation at room temperature for 30 minutes. Thereafter, with glutamic acid (in a final concentration of 10 μM) added thereto, incubation was performed at room temperature for 15 minutes, and thereafter, [^35S]GTPγS (in a final concentration of 0.8 kBq) and 588 μg WGA-SPA beads were added thereto, followed by incubation at room temperature for 1 hour. After the incubation, the plate was subjected to the centrifugal separation at 2,500 rpm and room temperature, and then, membrane cell binding radioactivity was measured with a top count.
A [^35S]GTPγS binding amount obtained by performing the above-described reaction in the absence of glutamic acid was defined as nonspecific binding, and a difference from a [^35S]GTPγS binding amount obtained in the presence of glutamic acid was defined as specific binding. On the basis of ratios of inhibiting the specific binding at various concentrations of the compounds of the respective examples, inhibition curves were obtained. Concentrations of the compounds of the respective examples at which the specific [^35S]GTPγS binding amount was suppressed by 50% (IC50 values) were calculated on the basis of the inhibition curves and shown in Tables 8 and 9.
In general terms: Binding of GTPγS marks nucleotide exchange on a G protein.
The IC50 is the point on the concentration scale where inhibition reaches its midpoint. High values mean weaker potency in that assay, low ones greater potency in that assay. Regarding `Cc1cc(-c2nc(-c3ccc(C(F)(F)F)c(C)c3)n3c2CCO[C@H](C)C3)cc(C)n1` [Example 124], the IC50 worked out at 4.5 nM. `Cc1cc(-c2nc(-c3ccc(F)c(OCC4CC4)c3)n3c2CCOCC3)cc(C)n1` [Example 94] returned an IC50 of 34.9 nM. In the case of `CC[C@@H]1Cn2c(-c3ccc(Cl)c(OC)c3)nc(-c3ccnc(C)c3)c2CCO1` [Example 78], the IC50 came out at 3.8 nM. Molecule `Cc1cc(-c2nc(-c3ccc(Cl)c(Cl)c3)n3c2CCO[C@H](C)C3)ccn1` [Example 66] returned an IC50 of 12.6 nM.

In the case of `COc1cc(-c2nc(-c3ccnc(C)c3)c3n2C[C@@H](CF)OCC3)ccc1OC(F)(F)F` [Example 17, (S)-6-(fluoromethyl)-3-(3-methoxy-4-(trifluoromethoxy)phenyl)-1-(2-methylpyridin-4-yl)-5,6,8,9-tetrahydroimidazo[1,5-d][1,4]oxazepine], the IC50 was 3.8 nM. The same measure, in the same setting: then `COc1cc(-c2nc(-c3cc(C)nc(C)c3)c3n2CCOCC3)ccc1C(F)(F)F` [Example 122], with 22.1 nM; and `Cc1cc(-c2nc(-c3ccc(C(F)(F)F)c(F)c3)n3c2CCOCC3)cc(C)n1` [Example 107], with 54 nM.

For the molecule `Cc1cc(-c2nc(-c3ccc(OC(F)(F)F)c(C)c3)n3c2CCO[C@H](C)C3)ccn1` [Example 9, (R)-6-methyl-3-(3-methyl-4-(trifluoromethoxy)phenyl)-1-(2-methylpyridin-4-yl)-5,6,8,9-tetrahydroimidazo[1,5-d][1,4]oxazepine], the IC50 was determined as 1.9 nM. On the same count and under the same terms, the figure for `COc1cc(-c2nc(-c3cc(C)nc(C)c3)c3n2C[C@@H](C)OCC3)ccc1C(C)(F)F` [Example 23, (R)-3-(4-(1,1-difluoroethyl)-3-methoxyphenyl)-1-(2,6-dimethylpyridin-4-yl)-6-methyl-5,6,8,9-tetrahydroimidazo[1,5-d][1,4]oxazepine] is 19.4 nM. For the molecule `Cc1cc(-c2nc(-c3ccc(Cl)c(C)c3)n3c2CCO[C@H](CF)C3)ccn1` [Example 74], the IC50 turned out to be 35.3 nM.

Molecule `Cc1cc(-c2nc(-c3ccc(OCC(F)(F)F)c(F)c3)n3c2CCOCC3)cc(C)n1` [Example 2, 1-(2,6-dimethylpyridin-4-yl)-3-(3-fluoro-4-(2,2,2-trifluoroethoxy)phenyl)-5,6,8,9-tetrahydroimidazo[1,5-d][1,4]oxazepine] registered a half-maximal inhibitory concentration (IC50) of 97.4 nM. In the case of `Cc1cc(-c2nc(-c3ccc(OC(F)(F)F)cc3)n3c2CCO[C@H](C)C3)cc(CF)n1` [Example 86], the IC50 was found to be 4.4 nM. Same read-out and setting: the figure for `COc1cc(-c2nc(-c3ccnc(CO)c3)c3n2C[C@@H](C)OCC3)ccc1Cl` [Example 47] is 242 nM. On the same count and under the same terms, the figure for `COc1cc(-c2nc(-c3ccc(Cl)c(OC)c3)n3c2CCO[C@H](C)C3)cc(C)n1` [Example 57] is 28.5 nM. In the case of `COc1ccc(-c2nc(-c3ccnc(C)c3)c3n2C[C@@H](C)OCC3)cc1F` [Example 60], the IC50 was 119 nM. As for `Cc1cc(-c2nc(-c3ccc(F)c(OC(F)(F)F)c3)n3c2CCOCC3)cc(C)n1` [Example 45], the IC50 amounted to 73.9 nM. The molecule `Cc1cc(-c2nc(-c3ccc(OC(F)(F)F)c(C)c3)n3c2CCOCC3)ccn1` [Example 118] yielded an IC50 of 10.9 nM.

In turn, `Cc1cc(-c2nc(-c3ccc(Cl)c(C)c3)n3c2CCO[C@H](C)C3)cc(C)n1` [Example 52] had an IC50 of 20.5 nM. `Cc1cc(-c2nc(-c3ccc(Cl)c(OC(F)(F)F)c3)n3c2CCOCC3)cc(C)n1` [Example 48] came in with an IC50 of 40 nM. Turning to `COc1cc(-c2nc(-c3ccnc(C)c3)c3n2C[C@@H](C)OCC3)ccc1C` [Example 55], the IC50 was found to be 21.9 nM.

The molecule `Cc1cc(-c2nc(-c3ccc(OC(F)(F)F)c(F)c3)n3c2CCOCC3)cc(C)n1` [Example 106] registered an IC50 of 20.9 nM. Consider `COc1cc(-c2nc(-c3ccnc(CF)c3)c3n2C[C@@H](C)OCC3)ccc1Cl` [Example 12, (R)-3-(4-chloro-3-methoxyphenyl)-1-(2-(fluoromethyl)pyridin-4-yl)-6-methyl-5,6,8,9-tetrahydroimidazo[1,5-d][1,4]oxazepine], for which the IC50 came to 28.3 nM. `Cc1cc(-c2nc(-c3ccc(Cl)c(C(F)F)c3)n3c2CCOCC3)cc(C)n1` [Example 125]: the IC50 stood at 16.5 nM.

In turn, `Cc1cc(-c2nc(-c3ccc(C(F)(F)F)c(Cl)c3)n3c2CCO[C@H](C)C3)ccn1` [Example 132] registered an IC50 of 33.3 nM.

Staying with this assay, now noted: cell membrane fraction of HEK293 cells stably expressing human mGluR2; glutamic acid 10 μM; inhibition of specific [35S]GTPγS binding.
The molecule `Cc1cc(-c2nc(-c3ccc(OC(C)C)c(C)c3)n3c2CCO[C@H](C)C3)cc(C)n1` [Example 242] gave an IC50 of 2.4 nM.

The molecule `Cc1cc(-c2nc(-c3ccc(Cl)c(C(F)(F)F)c3)n3c2CCO[C@H](C)C3)ccn1` [Example 152] registered an IC50 of 14.5 nM. On the same count and under the same terms, then `Cc1cc(-c2nc(-c3ccc(OC(F)(F)F)c(CO)c3)n3c2CCO[C@H](C)C3)cc(C)n1` [Example 229], with 18 nM.

As to `CCOc1cc(-c2nc(-c3ccnc(C)c3)c3n2CCOCC3)ccc1CC` [Example 214], the concentration for half-maximal inhibition (IC50) amounted to 21 nM. On to `COc1ccc(-c2nc(-c3ccnc(C)c3)c3n2C[C@@H](C)OCC3)cc1OC(F)(F)F` [Example 155], for which the IC50 stood at 19.2 nM. Still for that read-out and setting: the figure for `CCOc1cc(-c2nc(-c3ccnc(C)c3)c3n2C[C@@H](C)OCC3)ccc1CC` [Example 219] is 7.9 nM; for `Cc1cc(-c2nc(-c3ccc(OCC4CC4)c(Cl)c3)n3c2CCOCC3)cc(C)n1` [Example 217] it is 60.6 nM. `Cc1cc(-c2nc(-c3ccc(OC4CC4)c(C)c3)n3c2CCO[C@H](C)C3)cc(CF)n1` [Example 208]: the IC50 was 4.7 nM. The molecule `Cc1cc(-c2nc(-c3ccc(OC4COC4)c(Cl)c3)n3c2CCO[C@H](C)C3)cc(C)n1` [Example 232] yielded an IC50 of 9.7 nM. `CCOc1ccc(-c2nc(-c3cc(C)nc(C)c3)c3n2CCOCC3)cc1Cl` [Example 216] came in with an IC50 of 48 nM. Regarding `CCOc1ccc(-c2nc(-c3cc(C)nc(C)c3)c3n2C[C@@H](C)OCC3)cc1C` [Example 241], the IC50 was 2.9 nM. `Cc1cc(-c2nc(-c3ccc(OC(F)(F)F)c(F)c3)n3c2CCO[C@H](CF)C3)ccn1` [Example 166] gave an IC50 of 15.2 nM. `Cc1cc(-c2nc(-c3ccc(C(F)(F)F)c(C)c3)n3c2CCO[C@H](CF)C3)cc(C)n1` [Example 186]: the 50% inhibitory concentration (IC50) turned out to be 19.3 nM. `Cc1cc(-c2nc(-c3ccc(F)c(C(F)(F)F)c3)n3c2CCO[C@H](C)C3)cc(C)n1` [Example 143] returned an IC50 of 13.6 nM. `Cc1cc(-c2nc(-c3ccc(C(F)(F)F)c(C)c3)n3c2CCO[C@H](CF)C3)ccn1` [Example 187] came in with an IC50 of 19.3 nM. Consider `Cc1cc(-c2nc(-c3ccc(OC(F)(F)F)c(C#N)c3)n3c2CCO[C@H](CF)C3)ccn1` [Example 196], for which the IC50 is 3.8 nM. `Cc1cc(-c2nc(-c3ccc(OC(F)F)c(Cl)c3)n3c2CCO[C@H](CF)C3)cc(C)n1` [Example 233] displayed an IC50 of 2 nM. Still for that read-out and setting: the figure for `CCOc1cc(-c2nc(-c3ccnc(C)c3)c3n2C[C@@H](C)OCC3)ccc1C` [Example 223] is 16.7 nM; for `Cc1cc(-c2nc(-c3ccc(F)c(OC(F)F)c3)n3c2CCO[C@H](C)C3)cc(C)n1` [Example 184] it is 13.7 nM.

The molecule `COc1cc(-c2nc(-c3cc(C)nc(C(F)F)c3)c3n2C[C@@H](CF)OCC3)ccc1OC(F)F` [Example 193] yielded an IC50 of 9 nM.
